Consider six molecules from patent publication US11434241B2, “Pyrimidine derivatives for prevention and treatment of bacterial infections” (UNIVERSITE DE LIEGE, priority 2018, dated 2022).

For test [1], the system named is Staphylococcus epidermidis (ATCC 35984, also known as RP62A or MRSE). The test is described as follows: MIC determination on S. epidermidis (EUCAST, OD600 after overnight growth in MHB). It is filed as cell-based. How it is done: The Minimal Inhibitory Concentration (MIC) of molecules 2329, 2348, 2412, 2452 and 2461 was determined on Staphylococcus epidermidis (ATCC 35984, also known as RP62A) according to EUCAST (European Committee on Antimicrobial Susceptibility Testing) recommendations.
Briefly, a single colony grown on a Tryptic Soy Agar (TSA) plate was resuspended and cultured in Tryptic Soy Broth (TSB) overnight (O/N) in aerobic conditions (37° C. with 220 rpm shaking), next day a 1:50 inoculum in Mueller-Hinton broth (MHB) was incubated in aerobic conditions for 3 hr and an inoculum of 1:100 dilution, corresponding to 3×10^5 CFU/ml, was incubated in presence or absence of different concentrations of the molecules in 1% DMSO (vehicle). After O/N growth the OD of each culture was measured at 600 nm in a spectrophotometer (OD600). The MIC represents the concentration at which there is no visible growth of bacteria, i.e. ΔOD at 600 nm equal to zero (blank is the medium alone).
The Minimal Inhibitory Concentration (MIC) of pyrazolopyrimidine molecules 2539, 2544, 2666,2676, 2693, 2783, 2784 and 2782 and of purine molecules 2498, 2511, 2525, 2527, 2833, and 2840 was determined on S. epidermidis (ATCC 35984, also known as RP62A or MRSE) according to EUCAST (European Committee on Antimicrobial Susceptibility Testing) recommendations.
Briefly, a single colony grown on an agar plate was resuspended and cultured in Triptic Soy Broth (TSB) medium overnight (O/N) in aerobic conditions (37° C. with 220 rpm shaking), next day a 1:50 inoculum in Mueller-Hinton broth (MHB) was incubated in aerobic conditions for 3 hr (OD=0.08-0.1) and an inoculum of 1:300 dilution, corresponding to 3×10^5 CFU/ml, was incubated in presence or absence of different concentrations of each of the molecules in 1% DMSO (vehicle). After O/N growth the OD of each culture was measured at 600 nm (600) in a spectrophotometer (Victor 3-Perkin Elmer). The MIC represents the concentration at which there is no visible growth of bacteria, i.e. ΔOD at 600 nm equal to zero (where ΔOD is the difference between the OD with the molecule and the OD of the blank, the medium alone).
(§1) Molecule 36z has been tested for its potential antibacterial activity by determining its minimal inhibitory concentration (MIC) according to protocols recommended by EUCAST to assess the efficacy of antibiotics against bacterial strains. In brief MIC in MRSA (ATCC BAA-1556) or in Xen29 (Perkin Elmer-ATCC 12600) for 36z (molecule 25 in WO2009/034386) was determined by culturing a single colony of MRSA or Xen29 in brain heart infusion (BHI) broth overnight (O/N) in aerobic conditions (37° C. with 220 rpm shaking), while MIC for MRSE (ATCC 35984) was determined by culturing MRSE in TSB O/N. Next day a 1:100 inoculum in Mueller-Hinton broth (MHB) is incubated in aerobic conditions for 3 hr (OD=0.08-0.1) and an inoculum of 1:300 dilution, corresponding to 3×10^5 CFU/ml, is incubated in presence or absence of different concentrations of the tested molecules in 1% DMSO. After O/N growth the OD of each culture was measured at 600 nm (OD600) in a spectrophotometer (Victor 3-Perkin Elmer). The MIC represents the concentration at which there is no visible growth of bacteria, i.e. ΔOD at 600 nm equal to zero (blank is the medium alone). No antibacterial activity was found against MRSA (ATCC BAA-1556), Xen29 (Perkin Elmer-ATCC 12600 or MRSE (ATCC 35984) strains when the molecule was used at concentrations up to 200 μM.

Test [2] deals with S. aureus Xen29 (ATCC 12600). Description: MIC determination on bioluminescent S. aureus Xen29. It is filed as cell-based, Staphylococcus aureus. Particulars: for MIC: Staphylococcus aureus; for antibacterial activity / inhibition of Xen29 growth (in words): MHB medium. How it is done: (§2) Further experiments are conducted using different strains of S. aureus, as clinically relevant Gram-positive bacterial strains: S. aureus ATCC 25904, methicillin-resistant S. aureus (MRSA) ATCC BAA-1556, Glycopeptide intermediate-resistant (GISA) S. aureus Mu-50 (ATCC 700695) in order to determine the Minimal Inhibitory Concentration (MIC) which is the minimal concentration required to prevent bacterial growth. The bioluminescent strain S. aureus Xen29 (ATCC 12600) was also used. This strain is derived from the parental strain S. aureus ATCC 12600, a pleural fluid isolate, which is also designated as NCTC8532.
(§3) A single colony selected from the different strains of S. aureus is resuspended and cultured in brain heart infusion (BHI) broth overnight (O/N) in aerobic conditions (37° C. with 220 rpm shaking), next day a 1:100 inoculum in Mueller-Hinton broth (MHB) is incubated in aerobic conditions for 3 hr (=OD0.08-0.1) and an inoculum of 1:300 dilution, corresponding to 3×10^5 CFU/ml, is incubated in presence or absence of different concentrations of the tested molecules in 1% DMSO. After O/N growth the OD of each culture was measured at 600 nm (OD600) in a spectrophotometer (Victor 3-Perkin Elmer). The MIC represents the concentration at which there is no visible growth of bacteria, i.e. ΔOD at 600 nm equal to zero (blank is the medium alone). […] The MIC of molecule 2329 against Glycopeptide intermediate-resistant (GISA) S. aureus Mu-50 (ATCC 700695) is in between 25 and 30 μM, while it is above 50 μM for molecules 2348, 2412, and 2452.
Further experiments are conducted using different strains of S. aureus, as clinically relevant Gram-positive bacterial strains: methicillin-resistant S. aureus (MRSA) ATCC BAA-1556 and S. aureus Xen29 (Perkin Elmer ATCC 12600).
To determine the MIC of the above mentioned molecules in MRSA or in Xen29, a single colony of MRSA or Xen29 is resuspended and cultured in brain heart infusion (BHI) broth overnight (O/N) in aerobic conditions (37° C. with 220 rpm shaking), next day a 1:100 inoculum in Mueller-Hinton broth (MHB) is incubated in aerobic conditions for 3 hr (OD=0.08-0.1) and an inoculum of 1:300 dilution, corresponding to 3×10^5 CFU/ml, is incubated in presence or absence of different concentrations of the tested molecules in 1% DMSO. After O/N growth the OD of each culture was measured at 600 nm (OD600) in a spectrophotometer (Victor 3-Perkin Elmer). The MIC represents the concentration at which there is no visible growth of bacteria, i.e. ΔOD at 600 nm equal to zero (blank is the medium alone).
as §1

Test [3] deals with Glycopeptide intermediate-resistant (GISA) S. aureus Mu-50 (ATCC 700695). The test is described as follows: MIC determination on glycopeptide intermediate-resistant S. aureus. Format: cell-based. To be noted: Staphylococcus aureus, ATCC700695, read-out: MIC S. aureus GISA. On the procedure:
as §2, §3

[4] abbreviates: Staphylococcus epidermidis, Mueller-Hinton broth (MHB), read-out: MIC S. epidermidis RP62.
[5] abbreviates: ATCC12600, read-out: MIC S. aureus Xen29.

Structures are written as SMILES. Converted amounts (≈) assume the structure as drawn. Where two headings read alike, the source gives them in different places.

With `C#CCn1cnc2c(N[C@@H]3C[C@H]3c3ccc(F)c(F)c3)nc(SCCC)nc21` [Molecule 2452, N-((1R,2S)-2-(3,4-difluorophenyl)cyclopropyl)-9-(prop-2-yn-1-yl)-2-(propylthio)-9H-purin-6-amine], the figures for the MIC in test [1] (setting [4]), in test [2] (setting [5]) and in test [3] were above 50 µM, 20 to 25 µM (≈ 7.99 to 9.99 µg/mL) and above 50 µM, respectively.

With `C=CCn1cnc2c(N[C@@H]3C[C@H]3c3ccc(F)c(F)c3)nc(SCCC)nc21` [Molecule 2412, 9-allyl-N-((1R,2S)-2-(3,4-difluorophenyl)cyclopropyl)-2-(propylthio)-9H-purin-6-amine], the MIC (commonly the lowest concentration that inhibits growth of the organism) was above 50 µM in test [1] (setting [4]), 20 to 25 µM (≈ 8.03 to 10 µg/mL) in test [2] (setting [5]) and above 50 µM in test [3].

With `CCn1cnc2c(N[C@@H]3C[C@H]3c3ccc(F)c(F)c3)nc(SC)nc21` [Molecule 2511, N-((1R,2S)-2-(3,4-difluorophenyl)cyclopropyl)-9-ethyl-2-(methylthio)-9H-purin-6-amine], in test [1] (MHB medium), the “antibacterial activity / inhibition of MRSE growth (in words)” value is reported as “able to inhibit MRSE growth”. Further, the MIC was above 100 µM in test [1] (MHB medium, tested up to 100 μM, read-out: MIC MRSE); above 100 µM in test [1] (Staphylococcus epidermidis, MHB medium, tested up to 100 μM, read-out: MIC MRSE); 30 µM (≈ 10.8 µg/mL) in test [2] (ATCC12600, read-out: MIC Xen29). The “antibacterial activity / inhibition of Xen29 growth (in words)” value in test [2] was “able to inhibit”.

As for `CCCSc1nc(N[C@@H]2C[C@H]2c2ccc(F)c(F)c2)c2ncn(CC)c2n1` [Molecule 2348, N-((1R,2S)-2-(3,4-difluorophenyl)cyclopropyl)-9-ethyl-2-(propylthio)-9H-purin-6-amine], the minimum inhibitory concentration (MIC) in test [1] (setting [4]) was 20 µM (≈ 7.79 µg/mL); in test [2] (setting [5]) it was 20 to 25 µM (≈ 7.79 to 9.74 µg/mL); in test [3], above 50 µM.

In the case of `CCCSc1nc(N[C@@H]2C[C@H]2c2ccc(F)c(F)c2)c2ncn(C)c2n1` [Molecule 2329, N-((1R,2S)-2-(3,4-difluorophenyl)cyclopropyl)-9-methyl-2-(propylthio)-9H-purin-6-amine], the figures for the MIC in test [1] (setting [4]), in test [2] (setting [5]) and in test [3] were 20 µM (≈ 7.51 µg/mL), 20 to 25 µM (≈ 7.51 to 9.39 µg/mL) and 25 to 30 µM (≈ 9.39 to 11.3 µg/mL), respectively.

Regarding `CCSc1nc(N[C@@H]2C[C@H]2c2ccc(F)c(F)c2)c2cnn(C)c2n1.Cl` [Molecule 2666, N-((1R,2S)-2-(3,4-difluorophenyl)cyclopropyl)-6-(ethylthio)-1-methyl-1H-pyrazolo[3,4-d]pyrimidin-4-amine hydrochloride], the “antibacterial activity / inhibition of MRSE growth (in words)” value in test [1] (MHB medium) is listed as “able to inhibit MRSE growth”. In addition, the minimal inhibitory concentration (MIC) is 50 µM in test [1] (Staphylococcus epidermidis, read-out: MIC MRSE) and 20 µM in test [2] (ATCC12600, read-out: MIC Xen29). Besides, the “antibacterial activity / inhibition of Xen29 growth (in words)” value in test [2] was “able to inhibit”.
